Data: article PMC9920732 (2023)

Tests used:
Experiment in all cases: FRET quenching titration (qPCR instrument)
Conditions in all cases: 150 mM KCl, 15 mM NaCl; 20 mM Tris pH 7.4, 37 °C, 1 µM DNA; duplex shifted to quadruplex, complete at 50 µM pyridostatin
[1] = tested on: A:Gap (Tel22-T annealed to two shorter complements, one-base gap) (DNA, duplex, 5'-phosphate on strand 3; one-base gap between strands 2 and 3) AGGGTTAGGGTTAGGGTTAGGG/CCCTAACCC/AACCCTAACCCT
[2] = tested on: A:U (Tel22-T annealed to U-containing complement) (DNA, duplex, 2'-deoxyuridine at 10 of strand 2) AGGGTTAGGGTTAGGGTTAGGG/CCCTAACCCUAACCCTAACCCT
[3] = tested on: A:THF (Tel22-T annealed to complement with abasic site) (DNA, mismatch bulge abasic, tetrahydrofuran (THF) abasic site at 10 of strand 2) AGGGTTAGGGTTAGGGTTAGGG/CCCTAACCCNAACCCTAACCCT

Measured: binding

NCCOc1cc(C(=O)Nc2cc(OCCN)c3ccccc3n2)nc(C(=O)Nc2cc(OCCN)c3ccccc3n2)c1
yes: [1] | [2] | [3]
